Test results from paper PMC10747733, “N-Substituted 2-(Benzenosulfonyl)-1-Carbotioamide Derivatives Exert Antimicrobial and Cytotoxic Effects via Aldehyde Dehydrogenase Pathway: Synthesis, In Silico and In Vitro Studies” (Pharmaceuticals, 2023).
“And” between values parts separate entries of the source, which are not always exact repeats. Equal entries are not always repeated. “Also recorded” adds a separate entry of the source.

What was measured:
Assay type in all cases: cell-based, human
PC3 (prostate cancer) = assay: MTT antiproliferative activity assay; details: for TI after 24h / TI after 48h: IC50 WS1 / IC50 PC3
Method: (§1) Cancer cell lines originating from different organs, i.e., AGS (stomach—gastric adenocarcinoma), HepG2 (hepatocellular carcinoma), Du145, PC3 (prostate cancer), 769-P (renal cell carcinoma) and physiology cell line WS1 (fibroblasts), were purchased from ATCC. The cell cultures were carried out in an appropriate medium (DMEM or MEM) containing 10% heat-inactivated FBS with penicillin (100 U/mL) and streptomycin (100 U/mL). The cells were kept in a humidified incubator at 37 °C and 5% CO2 and passaged three times before experimenting.
(§2) The antiproliferative properties test for each cancer line was performed in 96-well plates, in which cells with a density of 2 × 10^4 were seeded in 100 µL of medium containing 10% FBS. After 24 h of allowing the cells to attach, the wells were washed with DPBS (Dulbecco’s phosphate-buffered saline) solution and the cells were incubated in fresh medium w/o FBS containing 1 µM, 10 µM, 50 µM, 200 µM or 500 µM of the tested compounds for 24 and 48 h. All substances were first dissolved in DMSO to prepare stock solutions that were then diluted in the medium to obtain a maximum of 0.1% w/v DMSO in the final solution. Each concentration was tested in triplicate. DMSO at a concentration of 0.1% in the medium was also used as a negative control. The antiproliferative activity of the compounds was tested using the MTT test. After each incubation time, the medium containing the test compounds and the negative control was removed, the cells were washed with DPBS solution, and then 100 µL of FBS-free and antibiotic-free fresh medium containing 0.5 mg/mL MTT was added to each well. The plates were incubated for 3 h in an incubator at 37 °C and 5% CO2. After incubation, the medium was removed, the cells were washed with 100 µL of PBS, and 100 µL of DMSO was added to each well to dissolve the purple formazan. The plate was shaken for 3 min and the absorbance was read at 570 nm (BioTek Synergy H1 microplate reader). Cell viability was calculated from the mean of the OD readings. Based on the dose–response curve, IC50 values were calculated (MS Excel). […] Therapeutic index (TI) results were calculated as the ratio of the IC50 of physiological cells to the IC50 of tumor cells.

[1] = system: HepG2 (hepatocellular carcinoma); assay: MTT antiproliferative activity assay; details: for TI after 24h / TI after 48h: IC50 WS1 / IC50 HepG2
Method: as §1, §2

[2] = system: 769-P (renal cell carcinoma); assay: MTT antiproliferative activity assay; details: for decrease in viability: 769-P; for TI after 24h / TI after 48h: IC50 WS1 / IC50 769-P
Method: as §1, §2

Du145 (prostate cancer) = assay: MTT antiproliferative activity assay; details: for concentration at which a statistically significant decrease in viability was observed: tested 1–500 µM; for TI after 24h / TI after 48h: IC50 WS1 / IC50 DU145
Method: as §1, §2

[3] = system: AGS (gastric adenocarcinoma); assay: MTT antiproliferative activity assay; details: for decrease in viability: AGS; for TI after 24h / TI after 48h: IC50 WS1 / IC50 AGS
Method: as §1, §2

WS1 (fibroblasts) = assay: MTT antiproliferative activity assay; details: for concentration at which a statistically significant decrease in viability was observed: tested 1–500 µM
Method: as §1, §2

ALDH1A1 = ALDH1A1 concentration by ELISA in HepG2 cells; details: compound at IC25, 48 h
Method: The effect of compounds WZ1–WZ4 on ALDHA1 levels was investigated (Figure 10). The Du145, HepG2 and 769-P cell lines were treated with the calculated IC25 values for each compound.
Selected cell lines, viz HepG2, Du145 and 769-P, were seeded into 6-well plates and incubated for 24 h after seeding with compounds at a concentration equal to IC25. After a further 24 h or 48 h, cells were detached with trypsin and centrifuged. The resulting cell pellet was resuspended in 0.5 mL PBS. The samples were then sonicated, and protein was determined using the Bradford method (Bio-rad; Hercules, CA, USA). Samples were equilibrated to 10 mg/mL of protein, and ALDH1A1 was determined in the samples prepared in this way. ALDH1A1 determination was performed using an ELISA (SEE824Hu; Cloud Clone Corp., Katy, TX, USA), according to the manufacturer’s protocol.

Row | Structure (SMILES) | TI after 24h (PC3 (prostate cancer); 24 h) | TI after 48h (PC3 (prostate cancer); 48 h) | decrease in viability (PC3 (prostate cancer); PC3, 24 h, 50 µM) | decrease in viability ([1]; HepG2, 24 h, 200 µM) | TI after 24h ([1]; 24 h) | TI after 48h ([1]; 48 h) | decrease in viability ([2]; 24 h, 1 µM) | decrease in viability ([2]; 48 h, 1 µM) | TI after 24h ([2]; 24 h) | TI after 48h ([2]; 48 h) | decrease in viability (Du145 (prostate cancer); Du145, 24 h, 1 µM) | concentration at which a statistically significant decrease in viability was observed (Du145 (prostate cancer); Du145, 48 h) [µM] | TI after 24h (Du145 (prostate cancer); 24 h) | TI after 48h (Du145 (prostate cancer); 48 h) | decrease in viability ([3]; 24 h, 1 µM) | TI after 24h ([3]; 24 h) | TI after 48h ([3]; 48 h) | concentration at which a statistically significant decrease in viability was observed (WS1 (fibroblasts); 24 h) | concentration at which a statistically significant decrease in viability was observed (WS1 (fibroblasts); 48 h) | decrease in viability ([3]; 48 h, 1 µM) | other results
1 | O=S(=O)(NNC(=S)NC1CCCCC1)c1ccccc1 [WZ1, 2-(Benzenesulfonyl)-N-Cyclohexylhydrazine-1-Carbothioamide] | 18.426 | 1.521 | ~ 11% | ~ 15% | 0.003 | 7.442 | ~ 11% | ~ 15% | 22.712 | 7.757 | ~ 7% | 200 | 16.001 | 0.170 | ~ 16% | 14.043 | 0.952 | 200 µM | 200 µM |  | concentration at which a statistically significant decrease in viability was observed (PC3 (prostate cancer); PC3, 48 h, tested 1–500 µM): 10 µM; decrease in viability ([1]; HepG2, 48 h, 10 µM): ~ 7%; decrease in viability ([3]; 48 h, 50 µM): ~ 6%
2 | CCCCCCNC(=S)NNS(=O)(=O)c1ccccc1 [WZ3, 2-(Benzenesulfonyl)-N-Hexylhydrazine-1-Carbothioamide] | 2.291 |  |  | ~ 31% | 1.701 | 2.426 | ~ 22% | ~ 48% | 0.078 | 115.134 |  |  | 0.476 |  | ~ 9% | 1.169 | 1.284 | 1 to 500 µM | no significant change in viability | ~ 9% | viability (reduced to) (PC3 (prostate cancer); PC3, 24 h, 50 µM): ~ 76%; decrease in viability (PC3 (prostate cancer); PC3, 48 h, 200 µM): ~ 11%; decrease in viability ([1]; HepG2, 48 h, 1 µM): ~ 7%; decrease in viability ([2]; 24 h, 200 µM): ~ 22%; decrease in viability (Du145 (prostate cancer); Du145, 24 h, 200 µM): ~ 19%; decrease in viability (Du145 (prostate cancer); Du145, 48 h, 50 µM): ~ 6%; decrease in viability (WS1 (fibroblasts); 24 h, 1 µM): ~ 12%; decrease in viability (WS1 (fibroblasts); 48 h, 500 µM): ~ 64%
3 | CNC(=S)NNS(=O)(=O)c1ccccc1 [WZ4, 2-(Benzenesulfonyl)-N-Methylhydrazine-1-Carbothioamide] | 0.920 and < 1 |  | ~ 27% | ~ 18% |  |  |  | ~ 16% | 1.653 | 15.763 | ~ 10% | 1 to 500 |  | 1.272 and > 1 | ~ 7% | 4.537 | 7.390 | 1 to 500 µM |  | ~ 12% | ALDH1A1 concentration compared to control (ALDH1A1): increase; also recorded: increased levels; decrease in viability (PC3 (prostate cancer); PC3, 48 h, 200 µM): ~ 32%; decrease in viability ([1]; HepG2, 24 h, 1 µM): ~ 4%; decrease in viability ([1]; HepG2, 48 h, 1 µM): ~ 3%; viability (reduced to) ([1]; HepG2, 48 h, 50 µM): ~ 69%; decrease in viability ([2]; 24 h, across 10–500 µM): 21–56%; decrease in viability ([2]; 48 h, across 1–500 µM): 16–82%; decrease in viability (Du145 (prostate cancer); DU145, 48 h, 1 µM): ~ 10%; concentration at which a statistically significant decrease in viability was observed (Du145 (prostate cancer); Du145, 24 h): 1 to 500 µM; decrease in viability ([3]; 24 h, across 1–500 µM): 7–84%; decrease in viability ([3]; 48 h, across 1–500 µM): 12–92%; decrease in viability (WS1 (fibroblasts); 24 h, all concentrations tested (1–500 µM)): 10–52%; decrease in viability (WS1 (fibroblasts); 48 h, 200 µM): ~ 15%
4 | CCCCNC(=S)NNS(=O)(=O)c1ccccc1 [WZ2, 2-(Benzenesulfonyl)-N-Butylhydrazine-1-Carbothioamide] | 289,230,463.397 | 224,184.286 |  |  | 205,540,220.291 | 15,880.957 | ~ 8% | ~ 10% | 753,464,970.626 | 67,951.475 |  |  | 2,352,384.152 | 28.982 | ~ 8% | 1,905,977,431.260 | 0.368 | no reduction in viability |  | ~ 6% | ALDH1A1 concentration compared to control (ALDH1A1): increase; also recorded: increased levels; viability (reduced to) (PC3 (prostate cancer); PC3, 24 h, 200 µM): ~ 82%; viability (reduced to) (PC3 (prostate cancer); PC3, 48 h, 50 µM): ~ 88%; decrease in viability ([1]; HepG2, 24 h, 500 µM): ~ 22%; viability (decreased to) ([1]; HepG2, 48 h, 1 µM): ~ 82%; viability at 50 µM (Du145 (prostate cancer); Homo sapiens, DU-145, Du145, 24 h, 50 µM, read-out: viability (dropped to)): ~80%; viability at 1 µM (Du145 (prostate cancer); Homo sapiens, DU-145, Du145, 48 h, 1 µM, read-out: viability (dropped to)): ~92%; decrease in viability (WS1 (fibroblasts); 48 h, 200 µM): ~ 17%; decrease in viability (WS1 (fibroblasts); 48 h, 500 µM): ~ 23%
